Active and inactive are the calls of the source. How the calls were made is not given here.
These compounds were tested against Induced myeloid leukemia cell differentiation protein Mcl-1 (Homo sapiens) (UniProt Q07820) (assay: modulators of Bim peptide binding to Mcl-1, dose response, biochemical, bead-based flow cytometry, multiplexed, human (AID 1329)). Conditions: Bim peptide-Mcl-1 binding, MCF.
Sequence of Induced myeloid leukemia cell differentiation protein Mcl-1 (Homo sapiens) (Q07820 whole entry, looked up): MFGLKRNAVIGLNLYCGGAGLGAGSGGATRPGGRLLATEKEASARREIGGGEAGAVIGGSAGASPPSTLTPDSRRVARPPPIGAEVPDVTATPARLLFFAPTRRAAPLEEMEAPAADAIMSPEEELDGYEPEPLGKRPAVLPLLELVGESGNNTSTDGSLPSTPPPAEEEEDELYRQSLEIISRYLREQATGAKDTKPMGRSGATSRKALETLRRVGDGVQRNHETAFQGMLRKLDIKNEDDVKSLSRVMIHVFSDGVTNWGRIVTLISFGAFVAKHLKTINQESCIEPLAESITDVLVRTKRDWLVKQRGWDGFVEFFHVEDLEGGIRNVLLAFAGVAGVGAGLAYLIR

| Compound | percent span |
| --- | --- |
| Brc1ccc2ncnc(Nc3ccc(N4CCOCC4)cc3)c2c1 | inactive |
| Cc1ccc(-c2cc(C(=O)Nc3cccnc3)c3ccccc3n2)o1 | inactive |
| Cn1c(=O)c(C(=O)COC(=O)c2cc(-c3ccco3)nc3ccccc23)c(N)n(CC2CC2)c1=O | inactive |
| CC1(C)CC(NC(=O)COc2ccc([N+](=O)[O-])cc2)CC(C)(C)N1 | inactive |
| CCOC(=O)CSC1=NC(=O)/C(=C/c2ccc(Br)cc2)S1 | inactive |
| O=C(NCc1ccccn1)c1ccc2nc(-c3ccco3)c(-c3ccco3)nc2c1 | inactive |
| CCN1/C(=C\c2ccc3cc(C)ccc3[n+]2CC)Sc2cc(C)c(C)cc21 | inactive |
| O=C1/C(=C/c2cccs2)Sc2ccccc21 | inactive |
| CC1(C)Cc2c(ccc3ccccc23)/C(=C/C(=O)N2CCCCC2)N1 | inactive |
| O=C1N/C(=C/c2cccn2-c2ccccc2)C(=O)N1Cc1ccc(F)cc1 | inactive |
| COc1ccc2nc(C)cc(SCC(=O)N/N=C/c3ccc(O)c(O)c3)c2c1 | inactive |
| COc1cccc(/C=N/Nc2nn3cnnc3c3ccccc23)c1O | inactive |
| O=C1Nc2ccc([N+](=O)[O-])cc2OC1CCN1CCN(Cc2ccc3c(c2)OCO3)CC1 (stereo unspecified) | inactive |
| Cc1cc(NC(=O)CCCC(=O)NCc2ccccc2)no1 | inactive |
| Cc1cccc(C(=O)N2CCC(c3nc(-c4ccc(S(=O)(=O)N5CCOCC5)cc4)no3)CC2)c1 | inactive |
| COc1ccc(CCNC(=O)c2ccc3nc(-c4ccco4)c(-c4ccco4)nc3c2)cc1OC | inactive |
| O=C(NC1=C(Nc2ccc(F)cc2)C(=O)c2ccccc2C1=O)c1ccc(Cl)cc1 | inactive |
| Cc1cccc(NC(=S)N2CCn3cccc3C2c2cccnc2)c1 (stereo unspecified) | inactive |
| Cc1ccc(/C=C/C2=Cc3c(sc(NC(=O)CSc4n[nH]c(N)n4)c3C#N)C(C)(C)C2)o1 | inactive |
| Cc1ccc(C2=N/C(=C/c3cccs3)C(=O)N2Nc2ccccc2)cc1 | inactive |
| COc1cc(/C=C2\S/C(=N/S(=O)(=O)c3ccc(C)cc3)NC2=O)c([N+](=O)[O-])cc1OC | inactive |
| CCOc1cc(CNc2ccc(N3CCCCC3)cc2)cc(Br)c1OCC(=O)NC(C)(C)C | inactive |
| Cc1cc(C)nc(/N=c2/ssnc2Cl)c1 | inactive |
| CC(=O)c1ccc2c(c1)C1C=CCC1C(c1ccncc1)N2 (stereo unspecified) | inactive |
| c1coc(C2=Nc3cccc4cccc(c34)N2)c1 | inactive |
| NC(=O)c1sc2nc3c(c(-c4ccco4)c2c1N)CCC3 | inactive |

| Compound | percent span |
| --- | --- |
| Cn1c(=O)c(C(=O)COC(=O)c2cc(-c3ccco3)nc3ccccc23)c(N)n(Cc2ccccc2)c1=O | inactive |
| COc1cc2[nH]c(=S)nc(NCCCOC(C)C)c2cc1OC | inactive |
| OC(COc1ccc2cc(Br)ccc2c1)CN1CCOCC1 (stereo unspecified) | inactive |
| COC(=O)c1ccc(-n2nnnc2SCC(=O)Nc2cc(OC)ccc2OC)cc1 | inactive |
| COc1cc(/C=C2\CC/C(=C\c3cc(OC)c(O)c(OC)c3)C2=O)cc(OC)c1O | inactive |
| O=C(Nc1ccccn1)c1cc2ccccc2o1 | inactive |
| O=C(Nc1nnc(C2CC2)s1)C1Cc2ccccc2CN1S(=O)(=O)c1ccccc1F (stereo unspecified) | inactive |
| Cc1cc(N2CCN(C)CC2)nc2ccc(NC(=S)N3CCN(c4cccc(Cl)c4)CC3)cc12 | inactive |
| CC(C)(C)OC(=O)N1CCN(C(=O)[C@H](Cc2ccc(O)cc2)n2cc(CCO)nn2)CC1 | inactive |
| N#Cc1ccc(N=c2ssnc2Cl)cc1 | inactive |
| O=C(O)CC1S/C(=N/N=C/C=C/c2ccccc2[N+](=O)[O-])NC1=O (stereo unspecified) | inactive |
| Cc1cc(NC(=O)CSc2nnc(-c3cccnc3)n2Cc2ccccc2)no1 | inactive |
| Cc1ccc(SCCC(=O)Nc2ccc(Br)c(C)c2)cc1 | inactive |
| CCCC1(C(=O)OCC)NC(c2cc(OC)c(OC)c(OC)c2)C2C(=O)N(CC)C(=O)C21 (stereo unspecified) | inactive |
| CSc1nnc2c3cc(C)ccc3n(Cc3ccccc3)c2n1 | inactive |
| COc1ccc2oc(-c3ccccc3)c(C(=O)N3CCOCC3)c2c1 | inactive |
| Cc1ccc(-n2[nH]c(C)c(/C=N/Nc3ccc([N+](=O)[O-])cc3[N+](=O)[O-])c2=O)cc1C | inactive |
| COc1ccc(N2C(=O)C(Cl)=C(Nc3ccccc3O)C2=O)cc1 | inactive |
| CS(=O)(=O)NN1C(=O)c2ccccc2NC1c1ccccc1 (stereo unspecified) | inactive |
| CNC(=O)c1c(N)sc2c1CCCCC2 | inactive |
| CCN1C(=O)/C(=C\C=C2/C=CC=CN2CC)SC1=S | inactive |
| CCN(CC)S(=O)(=O)c1cccc(C(=O)N/N=C/c2ccc(O)c(O)c2O)c1 | inactive |
| O=[N+]([O-])c1ccc(N/N=C/c2ccc(O)c(O)c2O)c(S(=O)(=O)N2CCOCC2)c1 | inactive |
| O=C(Nc1ccccc1N1CCOCC1)c1cccs1 | inactive |
| O=C(CCc1ccccc1)N1CCN(c2ccccn2)CC1 | inactive |
| CCOc1cc(CNc2ccc(N(C)C)cc2)cc(Br)c1OCC(=O)NC(C)(C)C | inactive |

| Compound | percent span |
| --- | --- |
| COc1cccc(N2CC(C(=O)Nc3nnc(SCC(=O)c4ccccc4)s3)CC2=O)c1 (stereo unspecified) | inactive |
| CC(C)c1ccc(/C=N/NC(=O)c2ccccc2Cl)cc1 | inactive |
| COc1cc(/C=N/Nc2nc3c(c(=O)n(C)c(=O)n3C)n2Cc2ccccc2)ccc1OC(=O)c1ccco1 | inactive |
| CN1/C(=C\C(=O)Nc2ccc(Cl)cc2)C(C)(C)c2ccccc21 | inactive |
| CCOC(=O)c1c2c3c(cccc3[nH]c1=O)C(=O)c1ccccc1-2 | inactive |
| O=C(c1cc2ccccc2oc1=O)N(c1ccccc1)C1C=CS(=O)(=O)C1 (stereo unspecified) | inactive |
| O=C(c1ccccc1NS(=O)(=O)c1ccc(Br)s1)N1CCCC1 | inactive |
| COC(=O)CSc1nccc(-c2cccs2)n1 | inactive |
| Cc1ccc(OCC(=O)NCc2ccccn2)c(Br)c1 | inactive |
| CC(C)c1ccc(C2CC(c3ccc(Br)cc3)=NN2C(N)=S)cc1 (stereo unspecified) | inactive |
| COc1ccccc1Oc1ccc2c(c1)C(=O)N(c1cccc3ncccc13)C2=O | inactive |
| Cc1ccc(-c2cc(-c3ccccc3Cl)c(C#N)c(N)n2)o1 | inactive |
| Clc1ccc2c(N/N=C/c3cccc(Br)c3)ccnc2c1 | inactive |
| Cc1ccc(C)n1-c1cccc(C(=O)O)c1 | inactive |
| COc1ccccc1OCc1ccc(C(=O)Nc2ccccc2F)cc1 | inactive |
| Cc1cc(C)cc(-n2c(C)nc3cc(C(=O)O)ccc32)c1 | inactive |
| Fc1ccccc1/C=C1\CCCC2=C1NC(=S)NC2c1ccccc1F (stereo unspecified) | inactive |
| N/C(=N\N=C/c1ccc(Br)cc1)N/N=C\c1ccc(Br)cc1 | inactive |
| COC(=O)c1c(NC(=O)COc2ncnc3ccccc23)sc(C)c1C | inactive |
| CN(CC(=O)O/N=C(\N)c1ccc([N+](=O)[O-])cc1)S(=O)(=O)c1ccccc1 | inactive |
| CCCCC(C(=O)OCC)C(N)Cc1ccc(F)cc1 (stereo unspecified) | inactive |
| CC(NC(=O)Nc1ccccn1)N1C(=O)C2C3C=CC(C3)C2C1=O (stereo unspecified) | inactive |
| CC(C)n1nnnc1SCC(=O)N1CCN(C(=O)c2ccco2)CC1 | inactive |
| CNC(=O)/C(C#N)=C/c1c(N(Cc2ccccc2)Cc2ccccc2)nc2c(C)cccn2c1=O | inactive |
| C=CS(=O)(=O)c1sc(Cl)c(N2CCOCC2)c1[N+](=O)[O-] | inactive |
| COc1ccc(NC(=O)c2ccc3c(c2)NC(=O)CS3)cc1S(=O)(=O)Nc1ccc(Br)cc1 | inactive |

| Compound | percent span |
| --- | --- |
| COc1ccc(C2=Nn3c(nnc3-c3ccccn3)SC2)cc1OC | inactive |
| Oc1ccc(C=NCC2COc3ccccc3O2)cc1 (stereo unspecified) | inactive |
| O=C(N/N=C/c1cccc([N+](=O)[O-])c1)c1cccs1 | inactive |
| O=C(/C=C/c1ccc(-c2ccccc2[N+](=O)[O-])o1)c1ccc(F)cc1 | inactive |
| COC(=O)c1c(C(=O)OC)c2cccc3cc(-c4ccccc4)c4ccc1c4n32 | inactive |
| CCOC(=O)C1(Cc2cccc(OC)c2)CCN(Cc2cccc(OC)c2OC)CC1 | inactive |
| Cc1ccccc1/C=N/Nc1ccnc2cc(Cl)ccc12 | inactive |
| O=C(NCCCO)Nc1ccc2nc(-c3ccco3)c(-c3ccco3)nc2c1 | inactive |
| COc1cc(CNc2ccc(N3CCCC3)cc2)cc(Cl)c1OC | inactive |
| CC1C=CCC2C(=O)N(c3ccc(OC(=O)c4cccs4)cc3)C(=O)C12 (stereo unspecified) | inactive |
| O=C(Nc1ccc2nc(-c3ccco3)c(-c3ccco3)nc2c1)N1CCCCCC1 | inactive |
| S=C(NCCc1ccccc1)NCCc1ccccc1 | inactive |
| Cc1ccccc1-c1nc(-c2ccc(NC(=O)c3ccc4c(c3)OCO4)cc2)no1 | inactive |
| Cc1noc(C)c1CN1C(=O)NC(Cc2ccccc2)(Cc2ccccc2)C1=O | inactive |
| OC(COc1ccc2ccccc2c1)CN1CCCC1 (stereo unspecified) | inactive |
| Cc1ccc(-c2cc(C(=O)N3CCN(c4ncccn4)CC3)c3cc(Br)ccc3n2)o1 | inactive |
| COP(=O)(CC(=O)O)c1ccccc1 (stereo unspecified) | inactive |
| CN1C(=O)/C(=C/c2ccc(-c3ccccc3[N+](=O)[O-])o2)SC1=Nc1ccc(Cl)c(C(=O)O)c1 | inactive |
| O=C(Oc1ccc(-c2cnc3ccccc3n2)cc1)c1cccc([N+](=O)[O-])c1 | inactive |
| CCCCCCc1cc2cc(C(=O)Nc3ccccc3)c(=O)oc2cc1O | inactive |
| COc1ccc(CN(C)CC(=O)NC(C)c2ccccc2)c(OC)c1 (stereo unspecified) | inactive |
| CN(C)CCNC(=O)C(=O)C1C(=O)Nc2ccccc21 (stereo unspecified) | inactive |
| Cc1cccc(-n2c(O)c(/C=N/N3CCOCC3)c(=O)[nH]c2=S)c1 | inactive |

Source: PubChem BioAssay AID1329 (NMMLSC, 2008)
